In paper PMC8243516, “Inhibition of lysosomal phospholipase A2 predicts drug-induced phospholipidosis” (Journal of Lipid Research, 2021):

Columns and labels:
phospholipidosis [1] = settings: phospholipidosis reported in vitro; Refs of Table 1; cited from earlier work
phospholipidosis [2] = settings: phospholipidosis reported in vivo, species codes; Refs of Table 1; cited from earlier work
[3] = target: T1, recombinant mouse LPLA2 (PLA2G15) (Mus musculus, UniProt Q8VEB4); experiment: Transacylase activity of LPLA2 (1-O-acyl-N-acetylsphingosine synthase, cell-free liposome assay); format: biochemical; settings: for IC50: 1-O-acyl N-acetylsphingosine synthase activity, pH 4.5, DOPC/sulfatide liposomes, read-out: LPLA2 IC50
T1 construct: purchased Proteos Inc. (Kalamazoo, MI)
T1 sequence (Q8VEB4 34-412): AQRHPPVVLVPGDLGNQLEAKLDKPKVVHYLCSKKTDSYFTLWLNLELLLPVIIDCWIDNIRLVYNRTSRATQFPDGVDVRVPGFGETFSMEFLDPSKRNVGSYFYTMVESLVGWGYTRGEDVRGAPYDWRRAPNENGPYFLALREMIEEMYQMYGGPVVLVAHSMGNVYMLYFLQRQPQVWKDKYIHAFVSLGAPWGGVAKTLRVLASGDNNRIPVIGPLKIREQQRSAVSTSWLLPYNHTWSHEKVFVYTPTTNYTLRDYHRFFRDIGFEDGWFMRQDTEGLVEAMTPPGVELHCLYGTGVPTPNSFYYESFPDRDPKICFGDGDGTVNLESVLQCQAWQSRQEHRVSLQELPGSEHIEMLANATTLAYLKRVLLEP

LPLA2 = target: T2, LPLA2 (Mus musculus, UniProt Q8VEB4); experiment: LPLA2 thermal stability measurement (SYPRO Orange Tm); format: binding; settings: N=3 ± SD
T2 construct: purchased Proteos Inc. (Kalamazoo, MI)
T2 sequence (Q8VEB4 34-412): T1 sequence (Q8VEB4 34-412)

[4] = ref Pubchem and chEMBL databases; cited from earlier work
MDCK cells = experiment: Screening phospholipidosis assay (LipidTOX Red / NucBlue Live fluorescence ratio); settings: LipidTOX Red to NucBlue Live fluorescence ratio, 24 h, 15 μM

Row | SMILES | IC50 [3] | (ΔTm)c-(ΔTm)d, difference in melting temperature of LPLA2 alone or in the presence of drug (LPLA2) | In Vitro PLD (phospholipidosis [1]) | In Vivo PLD (phospholipidosis [2]) | pKa (basic) [4] | LPLA2 inhibition (in words) ([3]; acyl transferase activity) | Ratio (15 μM) (MDCK cells)
1 | CCCCc1oc2ccccc2c1C(=O)c1cc(I)c(OCCN(CC)CC)c(I)c1 [Amiodarone, {2-[4-(2-butyl-1-benzofuran-3-carbonyl)-2,6-diiodophenoxy]ethyl} diethyl amine] |  |  | Yes | H,R |  |  | 
2 | CCN(CC)CCOc1ccc(C(O)(Cc2ccc(Cl)cc2)c2ccc(C)cc2)cc1 (stereo not shown) [Triparanol, 1-(4-(2-diethylaminoethoxy)phenyl)-1-p-tolyl-2-(4-chlorophenyl)ethanol] | 7.8 µM | 0 °C | Yes | R, M, Ha | 13.44 |  | 
3 | CCN(CC)CCCC(C)Nc1ccnc2cc(Cl)ccc12 (stereo not shown) [Chloroquine, 7-chloro-N-[5-(diethylamino)pentan-2-yl]quinolin-4-amine] | 655 µM |  | Yes | H, R, D, M |  |  | 
4 | CNCCC(Oc1ccc(C(F)(F)F)cc1)c1ccccc1 (stereo not shown) [Fluoxetine, methyl({3-phenyl-3-[4-(trifluoromethyl)phenoxy]propyl}) amine] |  |  | Yes | H,R,M |  |  | 
5 | CN(C)CCCC1(c2ccc(F)cc2)OCc2cc(C#N)ccc21 (stereo not shown) [Citalopram, 1-[3-(dimethylamino)propyl]-1-(4-fluorophenyl)-1,3-dihydro-2-benzofuran-5-carbonitrile] | 19.5 µM | 0 °C | Yes | Yes |  |  | 
6 | CCN1CCCC1CNC(=O)c1cc(S(N)(=O)=O)ccc1OC (stereo not shown) [Sulpiride, N-[(1-ethylpyrrolidin-2-yl)methyl]-2-methoxy-5-sulfamoylbenzamide] |  | 1.34 ± 0.9 °C |  | Yes | 8.4 | no inhibitory activity | 
7 | CNCCCC12CCC(c3ccccc31)c1ccccc12 [Maprotiline, methyl(3-{tetracyclo [6.6.2.0^2,^7.0^9,^14]hexadeca-2,4,6,9,11, 13-hexaen-1-yl}propyl)amine] |  |  |  | R | 10.54 |  | 
8 | CN[C@H]1CC[C@@H](c2ccc(Cl)c(Cl)c2)c2ccccc21 [Sertraline, (1S,4S)-4-(3,4-dichlorophenyl)-N-methyl-1,2,3,4-tetrahydronaphthalen-1-amine] |  |  | Yes | Yes |  |  | 
9 | C1CCC(C(CC2CCCCN2)C2CCCCC2)CC1 (stereo not shown) [Perhexiline, 2-(2,2-dicyclohexylethyl) piperidine] | 11.7 µM | -0.12 ± 0.0 °C | Yes | H,R,M | 10.58 |  | 
10 | CC(CN1c2ccccc2Sc2ccccc21)N(C)C (stereo not shown) [Promethazine, dimethyl[1-(10H-phenothiazin-10-yl)propan-2-yl] amine] | 40.3 µM | 1.45 ± 0.5 °C | Yes | Yes |  |  | 
11 | CN(C)CCC=C1c2ccccc2COc2ccccc21 [Doxepin, dimethyl(3-{9-oxatricyclo[9.4.0.0ˆ[1]]pentadeca-1(15),3,5,7,11,13-hexaen-2-ylidene}propyl)amine] |  |  | Yes | Yes | 9.76 |  | 
12 | CCN(CC)CCCC(C)Nc1c2ccc(Cl)cc2nc2ccc(OC)cc12.Cl.Cl (stereo not shown) [Quinacrine, 6-chloro-9-(4-diethylamino-1-methylbutylamino)-2-methoxyacridine dihydrochloride] |  |  | Yes | R |  |  | 
13 | CCC[C@@H]1C[C@@H](C(=O)NC(C(C)Cl)[C@H]2O[C@H](SC)[C@H](O)[C@@H](O)[C@H]2O)N(C)C1 (stereo partly drawn) [Clindamycin, (2S,4R)-N-{2-chloro-1-[(2R,3R,4S,5R,6R)-3,4,5-trihydroxy-6-(methylsulfanyl)oxan-2-yl]propyl}-1-methyl-4-propylpyrrolidine-2-carboxamide] |  |  | Yes | Yes |  |  | 
14 | C=C[C@H]1C[N@@]2CC[C@H]1C[C@H]2[C@H](O)c1ccnc2ccc(OC)cc12 [Quinine, (R)-[(1S,2S,4S,5R)-5-ethenyl-1-azabicyclo [2.2.2]octan-2-yl](6-methoxyquinolin-4-yl)methanol] | 164 µM | -1.00 ± 0.1 °C |  | Yes |  |  | 

Now from value to compound, other results behind:

Row | IC50 [3] | (ΔTm)c-(ΔTm)d, difference in melting temperature of LPLA2 alone or in the presence of drug (LPLA2) | SMILES | In Vitro PLD (phospholipidosis [1]) | In Vivo PLD (phospholipidosis [2]) | pKa (basic) [4] | LPLA2 inhibition (in words) ([3]; acyl transferase activity) | Ratio (15 μM) (MDCK cells)
15 | 14.7 µM | -0.5 ± 0.0 °C | CN(C)CCC=C1c2ccccc2CCc2ccccc21 [Amitriptyline, dimethyl(3-{tricyclo[9.4.0.0^3,^8]pentadeca-1(15),3,5,7,11,13-hexaen-2-ylidene}propyl)amine] | Yes | R |  |  | 
16 | 9.01 µM | -2.1 ± 0.2 °C | CN(C)CCCN1c2ccccc2Sc2ccc(Cl)cc21 [Chlorpromazine, [3-(2-chloro-10H-phenothiazin-10-yl)propyl] dimethylamine] | Yes | R, D |  |  | 
17 | 63 µM | -0.10 ± 0.0 °C | OCCOCCN1CCN(C(c2ccccc2)c2ccc(Cl)cc2)CC1 (stereo not shown) [Hydroxyzine, 2-(2-{4-[(4-chlorophenyl) (phenyl)methyl]piperazin-1-yl}ethoxy)ethan-1-ol] |  | R | 7.82 |  | 
18 | 5.12 µM |  | Fc1ccc([C@@H]2CCNC[C@H]2COc2ccc3c(c2)OCO3)cc1 [Paroxetine, (3S,4R)-3-[(2H-1,3-benzodioxol-5-yloxy)methyl]-4-(4-fluorophenyl)piperidine] |  | R |  |  | 
19 | 6.24 µM |  | CN(C)CCC=C1c2ccccc2C=Cc2ccccc21 [Cyclobenzaprine, dimethyl(3-{tricyclo[9.4.0.0^3,^8]pentadeca-1(15),3,5,7,9,11,13-heptaen-2-ylidene}propyl)amine] | Yes | Yes |  |  | 
20 | 116 µM | 0.58 ± 0.4 °C | Clc1ccccc1CNC[C@H]1CC[C@H](CNCc2ccccc2Cl)CC1 [ay-9944, trans-1,4-bis(2-chlorobenzylaminomethyl) cyclohexane] | Yes | R,Ra, M | 9.1 |  | 
21 | 27.6 µM | 0 °C | CN(C)CCCN1c2ccccc2CCc2ccccc21 [Imipramine, (3-{2-azatricyclo[9.4.0.0^3,^8]pentadeca-1(15),3,5,7,11, 13-hexaen-2-yl}propyl)dimethylamine] | Yes | R | 9.2 |  | 
22 | 124 µM | 1.08 ± 0.4 °C | O=C(NC1CCN(CCc2c[nH]c3ccccc23)CC1)c1ccccc1 [Indoramin, N-{1-[2-(1H-indol-3-yl)ethyl]piperidin-4-yl} benzamide] | Yes | R | 9.59 |  | 
23 | 25.7 µM | 1.60 ± 0.1 °C | CNCCCN1c2ccccc2CCc2ccccc21 [Desipramine, (3-{2-azatricyclo [9.4.0.0]pentadeca-1(15),3,5,7,11,13-hexaen-2-yl}propyl)(methyl)amine] | Yes | R |  |  | 
24 | 33 µM | 0.27 ± 0.1 °C | NC[C@H]1O[C@H](O[C@H]2[C@H](O)[C@@H](O[C@H]3O[C@H](CO)[C@@H](O)[C@H](N)[C@H]3O)[C@H](N)C[C@@H]2N)[C@H](N)C[C@@H]1O [Tobramycin, O-[3-amino-3-deoxy-α-D-glucopyranosyl-(1→6)]-O-[2,6-diamino-2,3,6-trideoxy-α-D-ribohexopyranosyl-(1→4)]-2-deoxy-D-streptamine] | Yes | R,H | 9.8 |  | 
25 | 39 µM | -0.10 ± 0.0 °C | CN(C)CCCN1c2ccccc2Sc2ccccc21 [Promazine, dimethyl[3-(10H-phenothiazin-10-yl)propyl]amine] | Yes | R | 9.2 |  | 
26 | 9.09 µM | 0.11 ± 0.0 °C | OC1(c2ccc(Cl)c(C(F)(F)F)c2)CCN(CCCC(c2ccc(F)cc2)c2ccc(F)cc2)CC1 [Penfluridol, 1-[4,4-bis(4-fluorophenyl)butyl]-4-[4-chloro-3-(trifluoromethyl)phenyl]piperidin-4-ol] |  | Yes | 8.96 |  | 0.55
